Experimental findings from patent US20230286956A1 (DUKSUNG WOMEN'S UNIVERSITY INDUSTRY-ACADEMIC COOPERATION …, priority 2020, published 2023) are described below.

The subject of data set [1] is SH-SY5Y cell line. Kind of data set: Inhibition of reactive oxygen species generation (CM-H2DCFDA) after MPP+ or rotenone. The data set is classed as cell-based. As to conditions: 10 µM compound, then MPP+ (2 mM) or rotenone (2 µM) for 24 hours. The protocol:
It is known that reactive oxygen species are generated by inhibition of mitochondria, activation of NOX enzyme, and the like when MPP+ or rotenone is administered to a cell line. Since the reactive oxygen species generated at this time react with the CM-H2DCFDA reagent to be fluorescent, the reactive oxygen species can be indirectly quantified.
Specifically, the SH-SY5Y cell line was treated with Compound 1aaa (Compound 1, 10 µM), apocynin (5 µM), or allopurinol (50 µM), and then with MPP+ (2 mM) or rotenone (2 µM) for 24 hours. The effect of each compound to inhibit the generation of reactive oxygen species is illustrated in FIGS. 2 and 3 as a relative percentage to that of the control group.

In data set [2] the test system is SH-SY5Y cell line. Kind of data set: Cell viability (MTT assay) after MPP+ or rotenone. As to conditions: 0.5 µM compound, then MPP+ (2 mM) or rotenone (2 µM) for 24 hours. The data set is classed as cell-based. The procedure: Specifically, the SH-SY5Y cell line was treated with 0.5 µM of Compound 1aaa (Compound 1), 1aca (Compound 24), lace (Compound 27), 1ahe (Compound 44) or 1aje (Compound 62) and then with MPP+ (2 mM) or rotenone (2 µM) for 24 hours. Cell viability in the case of being treated with each compound is illustrated in FIGS. 4 and 5.
For orientation: Formazan colour is commonly taken as a measure of viable cells.

In data set [3] the test system is alpha-synuclein. The data set is described as follows: Alpha-synuclein aggregation (phosphorylation) inhibition, Western blotting. The data set is classed as cell-based. As to conditions: SH-SY5Y, 10 µM compound then rotenone. The procedure: When rotenone is administered to nerve cells, phosphorylation, namely aggregation of alpha-synuclein occurs. Phosphorylation, aggregation of alpha-synuclein can be observed and quantified through Western blotting.
Specifically, the SH-SY5Y cell line was treated with Compound 1aaa (Compound 1, 10 µM) and then with rotenone. Thereafter, Western blotting was performed to measure the expression levels of alpha-synuclein and phosphorylated alpha-synuclein, and the results are illustrated in FIG. 6.
Background: In western blotting, separated proteins are transferred to a membrane and probed.

The test system of data set [4] is Nrf-2. The data set is described as follows: Nrf-2 induction, nuclear fraction Western blotting. In kind it is cell-based. As to conditions: SH-SY5Y, 10 µM compound for 24 hours. The procedure: When oxidative stress caused by reactive oxygen species increases in cells, the synthesis of antioxidants increases in response to this. One of the transcription factors mediating this antioxidant response is Nrf-2. As the transcription factor Nrf-2 enters the nucleus and the expression of genes related to antioxidation increases, the antioxidant capacity of cells increases.
Specifically, the SH-SY5Y cell line was exposed to Compound 1aaa (Compound 1, 10 µM) for 24 hours and then the cells were taken. Thereafter, the nuclear fraction was extracted, then Western blotting was performed to analyze the amount of Nrf-2 in the nucleus, and the results are illustrated in FIG. 7.

Data set [5] is described as follows: Single acute toxicity evaluation 1 (1000 mg/kg oral). The data set is classed as in vivo, ICR mice. The protocol: Acute toxicity properties after single administration of the compound of the present invention were evaluated in an animal model.

Turning to `CN1C(=[Se])N(c2ccccc2)C(=O)C1=Cc1ccc(O)cc1O` [Compound 1aaa], the “inhibition of increased generation of reactive oxygen species” value in data set [1] was “effectively inhibits”. Moreover, the “cell viability / inhibition of cell death” value in data set [2] is recorded as “significantly inhibit cell death”. In addition, in data set [3], the “phosphorylation of alpha-synuclein by rotenone” value was “significantly reduced”. For the same molecule, the “amount of Nrf-2 in the nucleus, increase” value in data set [4] is reported as “about 1.5 times”. In data set [5], the autopsy report findings result is recorded as “no specific findings”. Further, in data set [5], the organ weight result was “no change in organ weight”. The “change in body weight” value in data set [5] (day 0) was found to be 100; in data set [5] (day 1) it was 98.06; in data set [5] (day 2), 101.29; in data set [5] (day 3), 104.85; in data set [5] (day 5) it was 106.47; in data set [5] (day 7), 109.39. Also, the acute toxicity phenomenon entry in data set [5] (observed for 1 week) is recorded as “a specific acute toxicity phenomenon was not observed”.
